SMILES strings stand for the structures.

A short description of data set [1]: Adhesion Test (reservoir layer to support film). Type of data set: physicochemical. Also on record: key: A positive (+) result for adhesion indicates the carrier cohesively failed with transfer of polymer carrier material of the reservoir layer to the support film. To be noted: Camie SBR carrier (CAMIE 390B); repellent 2% in dry carrier, coated on PET tape. The method, then: Samples of 0.75 inch (19 mm) diameter were coated in circular molds onto the PET tape to a dry thickness of approximately 0.020 inch (0.51 mm). The insect repellent was formulated at 2% within the dry carrier. Subsequent to coating, the samples were first allowed to air dry at room temperature for approximately 1 hour, then placed in a heated air convection oven at approximately […] for several hours. Upon removal, samples sat overnight before evaluation. A sharpened to a point like a flat wooden dowel (approximately 3 mm diameter) was used to separate the reservoir layer/support film coating interface. The sharpened end of the wooden dowel was applied under hand pressure at the interface in an attempt to separate the reservoir layer from the support film. A positive (+) result for adhesion indicates the carrier cohesively failed with transfer of polymer carrier material of the reservoir layer to the support film.

Data set [2] can be described thus: Tack Test (wooden dowel probe on reservoir layer). It counts as physicochemical. The settings on record: repellent 2% in dry carrier, coated on PET tape. Also on record: key: A positive (+) result for tack indicates there was no transfer of the carrier polymer of the reservoir layer to the probe (adhesive failure). The method, then: Samples of 0.75 inch (19 mm) diameter were coated in circular molds onto the PET tape to a dry thickness of approximately 0.020 inch (0.51 mm). The insect repellent was formulated at 2% within the dry carrier. Subsequent to coating, the samples were first allowed to air dry at room temperature for approximately 1 hour, then placed in a heated air convection oven at approximately […] for several hours. Upon removal, samples sat overnight before evaluation. As a measure of tack, the surface of the coated formulation was probed with the flat end of a wooden dowel The wooden dowel was applied under hand pressure to the surface of the reservoir layer for 1 second long in contact. A positive (+) result for tack indicates there was no transfer of the carrier polymer of the reservoir layer to the probe (adhesive failure).

[3] abbreviates: Bostik EVA carrier (comparative).

For `CCN(CC)C(=O)c1cccc(C)c1` [Deet, N,N-diethyl-meta-toluamide], the adhesion entry in data set [1] is listed as “+ +”. Also, the tack entry in data set [2] (setting [3]) is on record as “+”; in data set [2] (Camie SBR carrier (CAMIE 390B)) it was “+ +”.

On to `CC(C)=CCC/C(C)=C/CO` [Geraniol], for which the adhesion entry in data set [1] was “+ +”. Further, the tack entry in data set [2] (setting [3]) is recorded as “+”; in data set [2] (Camie SBR carrier (CAMIE 390B)), “+ +”.
